Among the data in patent publication US9226929B2, “Pharmaceutically active disubstituted triazine derivatives” (Bayer Intellectual Property GMBH, priority 2011, dated 2016) are Kd values, retold here.

One experiment deals with T1, CDK9/Cyclin T1 (Homo sapiens, UniProt P50750).
T1 construct: His; purchased Invitrogen
The experiment is described as follows: LanthaScreen Eu Kinase Binding Assay, CDK9/Cyclin T1. Conditions: tracer 236, read-out: CDK9/Cyclin T1 (activity range), Kd. As for the experimental part: (§1) This protocol describes how the LanthaScreen Eu Kinase Binding Assay was performed to determine dissociation constants (Kd) of compounds of general formula (I) and CDK/Cyclin complexes. The principle behind this assay is based upon the binding and displacement of an Alexa Fluor 647-labeled tracer, which binds to the active site of kinases. Binding of the tracer to the kinase is detected using a Eu-labeled antibody. Simultaneous binding of both the tracer and antibody to the kinase gives rise to a FRET-signal. Binding of an inhibitor to the kinase competes for binding with the tracer, resulting in a loss of FRET.
(§2) The compounds of general formula (I) summarized in Table 1 were diluted from a 10 mM DMSO stock solution 1:10 in a total volume of 15 μL DMSO. This compound predilution was then serial diluted 1:3 over 8 steps in DMSO and briefly spun down. Each compound solution was now diluted 1:33.33 in kinase buffer (HEPES: 20 mM, pH: 8.0; MgCl2: 10 mM; DTT: 1 mM; Brij-35: 0,01%), mixed thoroughly and spun down. For every sample, 5 μL of the diluted compound were mixed with 5 μL tracer working solution (e.g. 60 nM tracer 236 in kinase buffer for CDK2/Cyclin A) and 5 μL CDK/Cyclin/Anti-GST-AB-working solution (e.g. 15 nM CDK2/Cyclin A, 1:250 dilution of Anti-GST-AB in kinase buffer) in a well of a small volume 384 well plate (Corning Incorporated, Corning, N.Y., USA; order no. 3673). The tracer concentration was adjusted to its dissociation constant (Kd) for the CDK/Cyclin, which was 30 nM for CDK2/Cyclin A, CDK7/Cyclin H and CDK9/Cyclin T1, 20 nM for CDK8/Cyclin C, and 35 nM for CDK9/Cyclin K. For negative controls, in each well 5 μL of DMSO working solution (3% DMSO diluted in kinase buffer) was mixed with 5 μL Anti-GST-AB working solution (e.g. 1:250 dilution of Anti-GST-AB in kinase buffer for CDK2/Cyclin A) and 5 μL Tracer working solution (e.g. 60 nM Tracer 236 in kinase buffer for CDK2/Cyclin A). For positive controls, in each well 5 μL of DMSO working solution (3% DMSO diluted in kinase buffer) was mixed with 5 μL CDK/Cyclin/Anti-GST-AB-working solution: (e.g. 15 nM CDK2/Cyclin A, 1:250 dilution of Anti-GST-AB in kinase buffer) and 5 μL Tracer working solution (e.g. 60 nM Tracer 236 in kinase buffer for CDK2/Cyclin A). Positive and negative controls were calculated from at least 8 different sample wells. The 384 well plates were mixed in a Teleshaker plate mixer (Beckman Coulter, Brea, Calif., USA) at 2000 rpm for 40 sec, and incubated for 1 h at room temperature before reading. The FRET signal was measured at 340 nm excitation, 665 nm and 615 nm emission (for the kinase tracer and LanthaScreen Eu-AB, respectively) with an Envision spectrophotometer (Perkin Elmer, Waltham, Mass., USA) with […]. Kd values were determined from the sigmoidal dose response curves with the software Quattro Workflow (Quattro GmbH, Munich, Germany).

For a further experiment, the target named is T2, CDK9/Cyclin K (Homo sapiens, UniProt P50750).
T2 construct: His; purchased Invitrogen
In words: LanthaScreen Eu Kinase Binding Assay, CDK9/Cyclin K. Conditions: tracer 236, read-out: CDK9/Cyclin K (activity range), Kd. As for the experimental part:
as §1, §2
A general note: TR-FRET usually uses a lanthanide donor and a delayed reading to cut background.

For the next experiment, the target named is T3, CDK7/CyclinH/MAT1 (Homo sapiens, UniProt P50613).
T3 construct: His; purchased Carna Biosciences
In words: LanthaScreen Eu Kinase Binding Assay, CDK7. The note with it: tracer 236, read-out: CDK7 (activity range), Kd. As to the method:
as §1, §2

A further experiment has as its target T4, CDK2/CyclinA (Homo sapiens, UniProt P24941).
T4 construct: GST; purchased Proqinase
In words: LanthaScreen Eu Kinase Binding Assay, CDK2. The note with it: tracer 236, read-out: CDK2 (activity range), Kd. As for the experimental part:
as §1, §2

T2 sequence (P50750 whole entry): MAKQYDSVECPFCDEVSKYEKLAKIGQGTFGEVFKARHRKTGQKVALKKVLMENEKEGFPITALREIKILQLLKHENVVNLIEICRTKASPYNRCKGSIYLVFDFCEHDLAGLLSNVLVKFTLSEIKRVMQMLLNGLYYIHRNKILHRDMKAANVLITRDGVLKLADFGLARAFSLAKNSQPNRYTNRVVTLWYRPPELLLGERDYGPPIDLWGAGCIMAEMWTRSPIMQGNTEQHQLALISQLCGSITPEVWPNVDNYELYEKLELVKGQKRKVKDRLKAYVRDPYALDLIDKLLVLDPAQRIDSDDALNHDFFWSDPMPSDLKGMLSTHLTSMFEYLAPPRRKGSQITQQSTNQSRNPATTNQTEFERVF
T2 sequence (O75909 1-357 isoform O75909-1 partner): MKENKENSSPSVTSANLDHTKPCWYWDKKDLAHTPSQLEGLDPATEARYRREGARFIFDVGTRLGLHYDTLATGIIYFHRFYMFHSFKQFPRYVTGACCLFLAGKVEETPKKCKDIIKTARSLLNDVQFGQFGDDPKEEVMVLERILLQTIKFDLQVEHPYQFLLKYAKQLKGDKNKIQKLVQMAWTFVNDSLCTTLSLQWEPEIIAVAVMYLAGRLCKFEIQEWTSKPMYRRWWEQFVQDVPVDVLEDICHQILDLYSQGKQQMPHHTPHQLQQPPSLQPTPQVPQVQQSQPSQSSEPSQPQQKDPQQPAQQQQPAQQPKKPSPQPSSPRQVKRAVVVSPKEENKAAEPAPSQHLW
T1 sequence (P50750 whole entry): as the sequence (P50750 whole entry) above
T1 sequence (O60563 whole entry partner): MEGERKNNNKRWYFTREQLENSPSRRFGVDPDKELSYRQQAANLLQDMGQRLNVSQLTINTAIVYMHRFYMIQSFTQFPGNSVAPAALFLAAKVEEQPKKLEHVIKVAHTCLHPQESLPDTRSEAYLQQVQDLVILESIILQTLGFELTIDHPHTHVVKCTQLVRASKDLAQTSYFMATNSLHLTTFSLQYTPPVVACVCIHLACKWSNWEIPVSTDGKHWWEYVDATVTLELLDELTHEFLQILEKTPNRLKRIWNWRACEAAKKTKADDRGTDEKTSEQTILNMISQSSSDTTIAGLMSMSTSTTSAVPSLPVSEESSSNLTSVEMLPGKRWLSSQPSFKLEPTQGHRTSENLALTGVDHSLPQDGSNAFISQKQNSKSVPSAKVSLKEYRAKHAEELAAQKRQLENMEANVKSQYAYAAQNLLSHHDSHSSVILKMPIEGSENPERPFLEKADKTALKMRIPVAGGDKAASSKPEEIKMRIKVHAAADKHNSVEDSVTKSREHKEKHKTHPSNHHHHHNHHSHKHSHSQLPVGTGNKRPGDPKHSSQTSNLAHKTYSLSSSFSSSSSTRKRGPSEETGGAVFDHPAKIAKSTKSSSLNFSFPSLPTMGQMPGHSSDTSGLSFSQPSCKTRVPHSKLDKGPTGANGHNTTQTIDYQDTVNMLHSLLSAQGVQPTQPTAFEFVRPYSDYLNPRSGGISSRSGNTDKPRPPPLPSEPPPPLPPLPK
T3 sequence (P50613 whole entry): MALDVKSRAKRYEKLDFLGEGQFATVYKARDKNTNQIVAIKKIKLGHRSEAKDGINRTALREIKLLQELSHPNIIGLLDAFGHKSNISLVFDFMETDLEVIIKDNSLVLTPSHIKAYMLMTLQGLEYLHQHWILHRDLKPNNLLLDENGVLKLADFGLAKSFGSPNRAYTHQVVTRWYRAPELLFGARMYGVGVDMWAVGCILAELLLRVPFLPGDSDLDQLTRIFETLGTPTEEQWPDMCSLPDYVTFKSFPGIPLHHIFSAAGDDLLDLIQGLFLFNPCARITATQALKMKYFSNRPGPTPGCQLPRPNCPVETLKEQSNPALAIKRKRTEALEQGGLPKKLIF
T3 sequence (P51946 whole entry partner): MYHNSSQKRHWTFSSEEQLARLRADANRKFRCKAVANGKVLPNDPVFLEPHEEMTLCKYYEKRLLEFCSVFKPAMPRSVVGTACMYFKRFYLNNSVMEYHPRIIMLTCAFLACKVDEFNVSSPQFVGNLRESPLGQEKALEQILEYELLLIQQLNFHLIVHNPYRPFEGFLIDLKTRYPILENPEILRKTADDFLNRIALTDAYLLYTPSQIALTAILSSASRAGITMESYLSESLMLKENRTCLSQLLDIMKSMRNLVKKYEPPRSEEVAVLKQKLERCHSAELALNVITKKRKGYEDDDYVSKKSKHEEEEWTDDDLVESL
T3 sequence (P51948 whole entry partner): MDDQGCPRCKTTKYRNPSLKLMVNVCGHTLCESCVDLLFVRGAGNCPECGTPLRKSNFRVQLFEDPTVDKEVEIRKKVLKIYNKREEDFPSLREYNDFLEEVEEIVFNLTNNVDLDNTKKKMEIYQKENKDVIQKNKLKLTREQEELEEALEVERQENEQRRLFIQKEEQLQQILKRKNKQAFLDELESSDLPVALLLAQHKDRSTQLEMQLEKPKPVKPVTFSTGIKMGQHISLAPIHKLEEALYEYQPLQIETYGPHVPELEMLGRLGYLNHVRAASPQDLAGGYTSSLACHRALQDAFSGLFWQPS

Take `COC[C@H]1CCCCN1c1ncnc(Nc2cccc(CS(N)(=O)=O)c2)n1` [Compound B5, (R)-3-[(4-(2-Methoxymethylpiperidin-1-yl)-1,3,5-triazin-2-yl)amino]-benzenemethanesulfonamide]: the Kd at CDK9/Cyclin T1 is 100 to 1000 nM; at CDK9/Cyclin K, 100 to 1000 nM; on CDK7/CyclinH/MAT1, greater than 10000 nM; on CDK2/CyclinA it was greater than 10000 nM.
Take `NS(=O)(=O)Cc1cccc(Nc2ncnc(N3CCOCC3)n2)c1` [Compound B10, 3-[(4-(Morpholin-4-yl)-1,3,5-triazin-2-yl)amino]benzenemethane sulfonamide]: the Kd on CDK9/Cyclin T1 lay within 100 to 1000 nM; on CDK9/Cyclin K it was 100 to 1000 nM; at CDK7/CyclinH/MAT1, 1000 to 10000 nM; on CDK2/CyclinA it was 1000 to 10000 nM.
Turning to `COC[C@@H]1CCCN1c1ncnc(Nc2cccc(CS(N)(=O)=O)c2)n1` [Compound B18, (S)-3-[(4-(2-(Methoxymethyl)pyrrolidin-1-yl)-1,3,5-triazin-2-yl)amino]benzenemethanesulfonamide], the Kd was 1000 to 10000 nM at CDK9/Cyclin T1, greater than 10000 nM at CDK9/Cyclin K, greater than 10000 nM at CDK7/CyclinH/MAT1 and greater than 10000 nM at CDK2/CyclinA.
Regarding `NS(=O)(=O)Cc1cccc(Nc2ncnc(N3CCC[C@@H]3CO)n2)c1` [Compound B24, (R)-3-[(4-(2-(Hydroxymethyl)pyrrolidin-1-yl)-1,3,5-triazin-2-yl)amino]-benzenemethanesulfonamide], the Kd was 1000 to 10000 nM on CDK9/Cyclin T1, 1000 to 10000 nM on CDK9/Cyclin K, greater than 10000 nM at CDK7/CyclinH/MAT1 and greater than 10000 nM on CDK2/CyclinA.
As to `NS(=O)(=O)Cc1cccc(Nc2ncnc(N3CCC[C@H]3CO)n2)c1` [Compound B25, (S)-3-[(4-(2-(Hydroxymethyl)pyrrolidin-1-yl)-1,3,5-triazin-2-yl)amino]-benzenemethanesulfonamide], the Kd at CDK9/Cyclin T1 was 1000 to 10000 nM; on CDK9/Cyclin K, 1000 to 10000 nM; at CDK7/CyclinH/MAT1, greater than 10000 nM; on CDK2/CyclinA, greater than 10000 nM.
With `NS(=O)(=O)Cc1cccc(Nc2ncnc(N3CCC[C@@H]3CN3CCCC3)n2)c1` [Compound B31, (R)-3-[(4-(2-((Pyrrolidin-1-yl)methyl)pyrrolidin-1-yl)-1,3,5-triazin-2-yl)amino]benzenemethanesulfonamide], the Kd at CDK9/Cyclin T1 is 1000 to 10000 nM; on CDK9/Cyclin K, greater than 10000 nM; on CDK7/CyclinH/MAT1 it was greater than 10000 nM; on CDK2/CyclinA it was greater than 10000 nM.
In the case of `NS(=O)(=O)Cc1cccc(Nc2ncnc(N3CCC[C@H]3CN3CCCC3)n2)c1` [Compound B32, (S)-3-[(4-(2-((Pyrrolidin-1-yl)methyl)pyrrolidin-1-yl)-1,3,5-triazin-2-yl)amino]benzenemethanesulfonamide], the Kd at CDK9/Cyclin T1, at CDK9/Cyclin K and on CDK7/CyclinH/MAT1 was greater than 10000 nM in each case.
As to `COC[C@H]1CCN1c1ncnc(Nc2cccc(CS(N)(=O)=O)c2)n1` [Compound B35, (R)-3-[(4-(2-(Methoxymethyl)azetidin-1-yl)-1,3,5-triazin-2-yl)amino]-benzenemethanesulfonamide], the Kd on CDK9/Cyclin T1 is 100 to 1000 nM; on CDK9/Cyclin K, 1000 to 10000 nM; on CDK7/CyclinH/MAT1, greater than 10000 nM; on CDK2/CyclinA, greater than 10000 nM.
`COC(=O)[C@H]1CCN1c1ncnc(Nc2cccc(CS(N)(=O)=O)c2)n1` [Compound B36, (R)-Methyl 1-[4-((3-(Sulfamoylmethyl)phenyl)amino)-1,3,5-triazin-2-yl]azetidine-2-carboxylate]: the Kd at CDK9/Cyclin T1 was 1000 to 10000 nM; at CDK9/Cyclin K, 1000 to 10000 nM; on CDK7/CyclinH/MAT1 it was greater than 10000 nM.
As to `NS(=O)(=O)Cc1cccc(Nc2ncnc(N3CCc4ncncc4C3)n2)c1` [Compound B39, 3-[(4-(7,8-Dihydropyrido[4,3-d]pyrimidin-6(5H)-yl)-1,3,5-triazin-2-yl)amino]benzenemethanesulfonamide], the Kd is 100 to 1000 nM at CDK9/Cyclin T1, 1000 to 10000 nM on CDK9/Cyclin K and greater than 10000 nM on CDK7/CyclinH/MAT1.
As to `NS(=O)(=O)Cc1cccc(Nc2ncnc(N3CCc4ccccc4C3)n2)c1` [Compound B40, 3-[(4-(3,4-Dihydroisoquinolin-2(1H)-yl)-1,3,5-triazin-2-yl)amino]-benzenemethanesulfonamide], the Kd on CDK9/Cyclin T1 was 1000 to 10000 nM; at CDK9/Cyclin K it was 1000 to 10000 nM; on CDK7/CyclinH/MAT1 it was greater than 10000 nM.
In the case of `Nc1cccc2c1CCN(c1ncnc(Nc3cccc(CS(N)(=O)=O)c3)n1)C2` [Compound B41, 3-[(4-(5-Amino-3,4-dihydroisoquinolin-2(1H)-yl)-1,3,5-triazin-2-yl)amino]benzenemethanesulfonamide], the Kd at CDK9/Cyclin T1 was 1000 to 10000 nM; on CDK9/Cyclin K, 1000 to 10000 nM; on CDK7/CyclinH/MAT1, greater than 10000 nM.
On to `NS(=O)(=O)Cc1cccc(Nc2ncnc(N3CCCc4ccccc43)n2)c1` [Compound B42, 3-[(4-(3,4-Dihydroquinolin-1(2H)-yl)-1,3,5-triazin-2-yl)amino]-benzenemethanesulfonamide], for which the Kd on CDK9/Cyclin T1 is less than 100 nM; at CDK9/Cyclin K, less than 100 nM; at CDK7/CyclinH/MAT1, greater than 10000 nM; at CDK2/CyclinA it was 100 to 1000 nM.
On to `NS(=O)(=O)Cc1cccc(Nc2ncnc(N3CCc4sccc4C3)n2)c1` [Compound B43, 3-[(4-(6,7-Dihydrothieno[3,2-c]pyridin-5(4H)-yl)-1,3,5-triazin-2-yl)amino]benzenemethanesulfonamide], for which the Kd at CDK9/Cyclin T1 is 100 to 1000 nM; on CDK9/Cyclin K it was 100 to 1000 nM; at CDK7/CyclinH/MAT1 it was 1000 to 10000 nM.
With `NS(=O)(=O)Cc1cccc(Nc2ncnc(N3CCn4ccnc4C3)n2)c1` [Compound B46, 3-[(4-(5,6-Dihydroimidazo[1,2-a]pyrazin-7(8H)-yl)-1,3,5-triazin-2-yl)amino]benzenemethanesulfonamide], the Kd at CDK9/Cyclin T1 was 1000 to 10000 nM; at CDK9/Cyclin K, 1000 to 10000 nM; on CDK7/CyclinH/MAT1, greater than 10000 nM.
Turning to `NS(=O)(=O)Cc1cccc(Nc2ncnc(N3Cc4cccnc4C3)n2)c1` [Compound B48, 3-[(4-(5H-Pyrrolo[3,4-b]pyridin-6(7H)-yl)-1,3,5-triazin-2-yl)amino]-benzenemethanesulfonamide], the Kd is 1000 to 10000 nM on CDK9/Cyclin T1, 100 to 1000 nM on CDK9/Cyclin K and greater than 10000 nM on CDK7/CyclinH/MAT1.
`NS(=O)(=O)Cc1cccc(Nc2ncnc(N3Cc4cncnc4C3)n2)c1` [Compound B50, 3-[(4-(5H-Pyrrolo[3,4-d]pyrimidin-6(7H)-yl)-1,3,5-triazin-2-yl)amino]-benzenemethanesulfonamide]: the Kd was 100 to 1000 nM at CDK9/Cyclin T1, 1000 to 10000 nM at CDK9/Cyclin K and greater than 10000 nM at CDK7/CyclinH/MAT1.
As for `NS(=O)(=O)Cc1cccc(Nc2ncnc(N3CCc4ccccc43)n2)c1` [Compound B52, 3-[(4-(Indolin-1-yl)-1,3,5-triazin-2-yl)amino]-benzenemethane sulfonamide], the Kd was less than 100 nM on CDK9/Cyclin T1, less than 100 nM at CDK9/Cyclin K, greater than 10000 nM on CDK7/CyclinH/MAT1 and 100 to 1000 nM at CDK2/CyclinA.
